Where two headings read alike, the source gives them in different places.
What was measured:
[1] = system: K562 (human chronic myelogenous leukemia) cells; assay: Cell Titer Glo 2.0 cell viability assay; format: cell-based; settings: Homo sapiens, K562, 72 h, K562 cells, 72 hours, Cell Titer Glo 2.0; read-out: K562 GI50
HTT mRNA = assay: RT-qPCR splicing assay, HTT canonical junction (CJ) and alternative junction (AJ) mRNA; format: cell-based, human; settings: Homo sapiens; for AC50: increase in HTT alternative junction (AJ) mRNA, read-out: HTT AJ AC50
Procedure, shortened: (§1)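 24 h treatment, 37 °C/5% CO2; A673 or K562; 11-pt 3-fold series, top 10 uM final; DMSO ≤0.25%. Cell lysis with DNase I, then 1-step RT-qPCR. Housekeeping normalization: PPIA (A673), GAPDH or GUSB (K562).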

Target C = assay: RT-qPCR splicing assay panel, Target C canonical junction (CJ) mRNA; format: cell-based, human; settings: Homo sapiens; canonical junction qPCR panel, Table 5; read-out: Target C (decrease in CJ mRNA levels, IC50)
Procedure, shortened: (§2)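 K562/A673 cells, 11-pt 3-fold compound titration from 10 uM final, DMSO ≤0.25%, 24 h 37 °C 5% CO2; lyse (DNase I or Igepal/Tris buffer pH 7.4); RT-qPCR for CJ isoform vs housekeeping gene (GAPDH/GUSB/PPIA).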

SMN2 mRNA = assay: RT-qPCR splicing assay, SMN2 canonical junction (CJ) mRNA; format: cell-based, human; settings: Homo sapiens; canonical junction qPCR panel, Table 5; read-out: SMN2 (decrease in CJ mRNA levels, IC50)
Procedure, shortened: as §2

MYB mRNA = assay: RT-qPCR splicing assay, MYB canonical junction (CJ) and alternative junction (AJ) mRNA; format: cell-based, human; settings: Homo sapiens; for AC50: increase in MYB alternative junction (AJ) mRNA, read-out: MYB AJ AC50
Procedure, shortened: as §1

[2] = decrease in HTT canonical junction (CJ) mRNA, RT-qPCR, read-out: HTT CJ IC50
[3] = canonical junction qPCR panel, Table 5, read-out: HTT (decrease in CJ mRNA levels, IC50)
[4] = canonical junction qPCR panel, Table 5, read-out: MYB (decrease in CJ mRNA levels, IC50)
[5] = decrease in MYB canonical junction (CJ) mRNA, RT-qPCR, read-out: MYB CJ IC50

SMILES | GI50 [1] | IC50 (HTT mRNA; [2]) | AC50 (HTT mRNA; RT-qPCR) | IC50 (HTT mRNA; [3]) | IC50 (Target C) | IC50 (SMN2 mRNA) | IC50 (MYB mRNA; [4]) | IC50 (MYB mRNA; [5]) | AC50 (MYB mRNA; RT-qPCR)
Cn1cc2cc(-c3ccc4c(=O)n(C56CCC(N)(CC5)C6)ccc4n3)c(O)cc2n1 [Compound 1481, 6-(4-aminonorbornane-1-yl)-2-(6-hydroxy-2-methyl-indazol-5-yl)-1,6-naphthyridin-5-one] | < 0.1 µM | 1 to 10 µM | 0.1 to 1 µM | 0.1 to 1 µM | 1 to 10 µM | < 0.1 µM | < 0.1 µM | 0.1 to 1 µM | < 0.1 µM
Cc1cn2cc(-c3ncc4c(=O)n(C5C[C@H](C)N[C@@H](C)C5)ccc4n3)cc(F)c2n1 (stereo partly drawn) [Compound 1482, 6-[(2S,6S)-2,6-dimethyl-4-piperidyl]-2-(8-fluoro-2-methyl-imidazo[1,2-a]pyridin-6yl)pyrido[4,3-d]pyrimidin-5-one] | < 0.1 µM | 1 to 10 µM | 1 to 10 µM | 1 to 10 µM | 0.1 to 1 µM | < 0.1 µM | < 0.1 µM | 0.1 to 1 µM | < 0.1 µM
Cc1cn2cc(-c3ncc4c(=O)n(C5C[C@@H](C)N[C@H](C)C5)ccc4n3)cc(F)c2n1 (stereo partly drawn) [Compound 1483, 6-[(2R,6R)-2,6-dimethyl-4-piperidyl]-2-(8-fluoro-2-methyl-imidazo[1,2-a]pyridin-6-yl)pyrido[4,3-d]pyrimidin-5-one] | 0.1 to 1 µM | 1 to 10 µM | 0.1 to 1 µM | 0.1 to 1 µM | 0.1 to 1 µM | < 0.1 µM | 0.1 to 1 µM | 1 to 10 µM | 0.1 to 1 µM
Cc1c(O)c(-c2ccc3c(=O)n([C@H]4CC[C@H](N(C)C)CC4)ccc3n2)cc2cn(C)nc12 [Compound 1484, 6-[4-(dimethylamino)cyclohexyl]-2-(6-hydroxy-2,7-dimethyl-indazol-5-yl)-1,6-naphthyridin-5-one] | < 0.1 µM | 0.1 to 1 µM | < 0.1 µM | < 0.1 µM | 0.1 to 1 µM | < 0.1 µM | < 0.1 µM | < 0.1 µM | < 0.1 µM
Cc1c(O)c(-c2ccc3c(=O)n([C@H]4CC[C@@H](N(C)C)CC4)ccc3n2)cc2cn(C)nc12 [Compound 1485, 6-[4-(dimethylamino)cyclohexyl]-2-(6-hydroxy-2,7-dimethyl-indazol-5-yl)-1,6-naphthyridin-5-one] | 0.1 to 1 µM | 0.1 to 1 µM | 0.1 to 1 µM | 0.1 to 1 µM | 0.1 to 1 µM | < 0.1 µM | 0.1 to 1 µM | 0.1 to 1 µM | 0.1 to 1 µM
Cc1c(O)c(-c2ccc3c(=O)n(C45CCC(N)(CC4)C5)ccc3n2)cc2cn(C)nc12 [Compound 1486] | < 0.1 µM | 1 to 10 µM | 0.1 to 1 µM | 0.1 to 1 µM | 1 to 10 µM | < 0.1 µM | < 0.1 µM | 0.1 to 1 µM | < 0.1 µM
Cc1c(O)c(-c2ncc3c(=O)n(C45CCC(N(C)C)(CC4)C5)ccc3n2)cc2cn(C)nc12 [Compound 1488] | 0.1 to 1 µM | 1 to 10 µM | 0.1 to 1 µM | 0.1 to 1 µM | 1 to 10 µM | < 0.1 µM | 0.1 to 1 µM | 0.1 to 1 µM | 0.1 to 1 µM
Cn1cc2cc(-c3ncc4c(=O)n(C56CCC(N)(CC5)C6)ccc4n3)cc(F)c2n1 [Compound 1489, 6-(4-aminonorbornane-1-yl)-2-(7-fluoro-2-methyl-indazol-5-yl)pyrido[4,3-d]pyrimidin-5-one] | 0.1 to 1 µM | 1 to 10 µM | 1 to 10 µM | 1 to 10 µM | 1 to 10 µM | < 0.1 µM | 0.1 to 1 µM | 0.1 to 1 µM | 0.1 to 1 µM
Cc1cn2cc(-c3ncc4c(=O)n([C@H]5CCN[C@H](C)C5)ccc4n3)cc(F)c2n1 [Compound 1490, 2-(8-fluoro-2-methyl-imidazo[1,2-a]pyridin-6-yl)-6-[(2R,4S)-2-methyl-4-piperidyl]pyrido[4,3-d]pyrimidin-5-one] | 0.1 to 1 µM | 0.1 to 1 µM | < 0.1 µM | < 0.1 µM | 0.1 to 1 µM | < 0.1 µM | < 0.1 µM | < 0.1 µM | < 0.1 µM
Cc1cn2cc(-c3nc(C)c4c(=O)n(C5CCNCC5)ccc4n3)cc(F)c2n1 [Compound 1491, 2-(8-fluoro-2-methyl-imidazo[1,2-a]pyridin-6-yl)-4-methyl-6-(4-piperidyl)pyrido[4,3-d]pyrimidin-5-one] | 0.1 to 1 µM | 0.1 to 1 µM | 0.1 to 1 µM | 0.1 to 1 µM | 0.1 to 1 µM | < 0.1 µM | 0.1 to 1 µM | 0.1 to 1 µM | 0.1 to 1 µM
Cc1cn2cc(-c3ccc4c(=O)n(C56CCC(N)(CC5)C6)ccc4n3)cc(F)c2n1 [Compound 1492] | 0.1 to 1 µM | 1 to 10 µM | 1 to 10 µM | 1 to 10 µM | 1 to 10 µM | < 0.1 µM | 0.1 to 1 µM | 0.1 to 1 µM | 0.1 to 1 µM
C[C@H]1C[C@@H](n2ccc3nc(-c4cc5cn(C)nc5cc4O)ncc3c2=O)CCN1 [Compound 1493, 2-(6-hydroxy-2-methyl-indazol-5-yl)-6-[(2S,4S)-2-methyl-4-piperidyl]pyrido[4,3-d]pyrimidin-5-one] | 0.1 to 1 µM | 1 to 10 µM | 1 to 10 µM | 1 to 10 µM | 1 to 10 µM | < 0.1 µM | 0.1 to 1 µM | 0.1 to 1 µM | 0.1 to 1 µM
Cc1cn2cc(-c3ccc4c(=O)n([C@H]5CCN[C@@H](C)C5)ccc4n3)cc(F)c2n1 [Compound 1494] | 0.1 to 1 µM | 1 to 10 µM | 1 to 10 µM | 1 to 10 µM | 1 to 10 µM | < 0.1 µM | 0.1 to 1 µM | 0.1 to 1 µM | 0.1 to 1 µM
Cc1cn2nc(-c3ccc4c(=O)n([C@H]5CCN[C@@H](C)C5)ccc4n3)cc(C)c2n1 [Compound 1495] | 0.1 to 1 µM | 0.1 to 1 µM | < 0.1 µM | < 0.1 µM | 0.1 to 1 µM | < 0.1 µM | < 0.1 µM | < 0.1 µM | < 0.1 µM
Cc1cn2cc(-c3ncc4c(=O)n([C@@H]5CCNC(C)(C)C5)ccc4n3)cc(F)c2n1 [Compound 1496, 6-[(4R)-2,2-dimethyl-4-piperidyl]-2-(8-fluoro-2-methyl-imidazo[1,2-a]pyridin-6-yl)pyrido[4,3-d]pyrimidin-5-one] | 0.1 to 1 µM | 1 to 10 µM | 0.1 to 1 µM | 0.1 to 1 µM | 1 to 10 µM | < 0.1 µM | 0.1 to 1 µM | 0.1 to 1 µM | 0.1 to 1 µM
